According to US20250019369A1, “N-(4-aminocyclohexyl)pyrimidine-4-carboxamide derivatives as CD38 inhibitors” (Cerevance, Inc., priority 2021, published 2025):
Read-outs that look alike come from different tables or passages of the source.

How the values were obtained:
[1] = Tissue binding assay, plasma (equilibrium dialysis); format: in vitro ADME; details: dialysis 4 hours at 37° C.
Experimental: [The source words this procedure for another target and reports this target under the same test.] (§1) Buffer preparation. A basic solution was prepared by dissolving 14.2 g/L Na2HPO4 and 8.77 g/L NaCl in deionized H2O. An acidic solution was prepared by dissolving 15.6 g/L NaH2PO4·2H2O and 8.77 g/L NaCl in deionized H2O. Using the acidic solution, the basic solution was then titrated to pH 7.4±0.1 and stored at 4° C. for up to 1 month. The stop solution was 100% CH3CN containing 200 ng/mL tolbutamide, 200 ng/mL labetalol and 50 ng/mL metformin.
(§2) Test method. Dialysis membrane strips were soaked in ultra-pure water at room temperature for ˜1 hour. Each membrane strip containing 2 membranes was separated and soaked in 20:80 EtOH/H2O (v/v) for ˜20 min, after which they were ready for use or were stored in the solution at 2-8° C. for up to 1 month. Prior to the experiment, the membrane was rinsed and soaked for 20 min in ultra-pure water. On the day of experiment, brain homogenate was thawed in a water bath at room temperature and incubated at 37° C. for 10 min before use. Test and control compounds were dissolved in DMSO to achieve 10 mM stock solutions. DMSO working solutions were prepared at 400 μM by diluting 10 μL of stock solution. To prepare the time zero (t=0) samples to be used for recovery determination, 50 μL aliquots of loading matrix were transferred in triplicate to the sample collection plate. The samples were immediately matched with opposite blank buffer to obtain a final volume of 100 μL of 1:1 matrix/dialysis buffer (v/v) in each well. 500 μL of stop solution were added to these t=0 samples. They were then stored at 2-8° C. pending further processes along with other post-dialysis samples. To load the dialysis device, an aliquot of 150 μL of the loading matrix was transferred to the donor side of each dialysis well in triplicate, and 150 μL of the dialysis buffer was loaded to the receiver side of the well. The dialysis plate was placed in a humidified incubator at 37° C. with 5% CO2 on a shaking platform that rotated slowly (about 100 rpm) for 4 hours. At the end of the dialysis, aliquots of 50 μL of samples were taken from both the buffer side and the matrix side of the dialysis device. These samples were transferred into new 96-well plates. Each sample was mixed with an equal volume of opposite blank matrix (buffer or matrix) to reach a final volume of 100 μL of 1:1 matrix/dialysis buffer (v/v) in each well. All samples were further processed by adding 500 μL of stop solution containing internal standards. The mixture was vortexed and centrifuged at 4000 rpm for about 20 min. An aliquot of 100 μL of supernatant of all the samples was then removed for LC-MS/MS analysis. The single blank samples were prepared by transferring 50 μL of blank matrix to a 96-well plate and adding 50 μL of blank PBS buffer to each well. Then the matrix-matched samples were further processed by adding 500 μL of stop solution containing internal standards, following the same sample processing method as the dialysis samples.
(§3) Data analysis. The % undiluted unbound, % undiluted bound and % recovery were calculated using the following equations:
(§4) % Undiluted Unbound=100*1/D/((1/(F/T)−1)+1/D)
(§5) % Undiluted Bound=100−% Undiluted Unbound
(§6) where F is the analyte concentration or peak area ratio of analyte/internal standard on the buffer (receiver) side of the membrane; T is the analyte concentration or peak area ratio of analyte/internal standard on the matrix (donor) side of the membrane; To is the analyte concentration or the peak area ratio of analyte/internal standard in the loading matrix sample at time zero; and D is the dilution factor determined as 4 in this assay.

[2] = PK brain permeability in C57BL/6 mice after single oral gavage; format: in vivo; details: male, C57BL/6, mouse, 2 hours post dose; for concentration at 2 h: po, 10 mg/kg; for Kpu,u (unbound brain/plasma partition coefficient) at 2 h: oral 10 mg/kg, read-out: Kpu,u (unbound partitioning coefficient, Cb,u/Cp,u)
Experimental: The distribution of compounds into the brain in vivo was determined in C57BL/6 mice following single oral (po) gavage administration.
Test compounds were formulated at 1 mg/mL in 0.5% HPMC E4 M, 0.2% Tween 80 in water to achieve solutions or homogenous suspensions suitable for po administration.
Formulations were administered to 3 male C57BL/6 mice at a volume of 10 mL/kg resulting in a dose level of 10 mg/kg. Blood samples were collected at 1 and 2 hours post dose into tubes containing K2EDTA as anticoagulant, processed to plasma and stored at −60° C. or lower until LC-MS/MS analysis. Brains were harvested 2 hours post dose, rinsed with saline, dried, weighed and homogenised under ice cold conditions. Brain homogenates were stored at −60° C. or lower until LC-MS/MS analysis.
Dose formulation concentrations were verified using a LC-UV or LC-MS/MS method. Test compound concentrations in plasma and brain homogenate were quantitatively determined using LC-MS/MS methods developed in individual matrices against calibration curves with QC samples included and acceptance criteria as per CRO SOPs. Concentrations in brain homogenate were corrected for the dilution factor used to prepare the homogenate to give concentrations in whole brain tissue.
Plasma and brain concentration versus time data were reported and plotted in excel. The brain to plasma ratio at 2 hours post dose was calculated for each animal using the following equation:
Brain:plasma=brain concentration (ng/g) at 2 h/plasma concentration (ng/mL) at 2 h
As only unbound test compound is available to exert an effect on the target, unbound plasma (Cp,u) and unbound brain (Cb,u) concentrations were calculated by correcting the total concentrations for the unbound fraction in plasma (fu,p) or brain (fu,b) determined from in vitro plasma protein or brain tissue binding assays using the following equations: […]
The unbound partitioning coefficient (Kpu,u) was then calculated based on the ratio of Cb,u to Cp,u using the following equation: […]
In these studies, mice were orally administrated a 10 mg/kg dose and sacrificed 2 hours post dose and tissue samples (brain homogenate and plasma) were analyzed subsequently as described above.

[3] = Tissue binding assay, brain homogenate (equilibrium dialysis); format: in vitro ADME; details: dialysis 4 hours at 37° C., dilution factor 4
Experimental: as §1, §2, §3, §4, §5, §6

[4] = molecular target: Recombinant mouse CD38 (Mus musculus (Mouse), UniProt P56528); experiment: Mouse CD38 hydrolase assay (fluorescence, ε-NAD substrate); format: biochemical; details: recombinant mouse CD38 0.4 nM, 12 μM ε-NAD, 30 min preincubation at 25° C., pH 7.4
Experimental: (§7) The ability of test compounds to inhibit mouse CD38 hydrolase activity was measured in a fluorescence-based assay using non-physiological NAD^+ substrate analogue 1,N^6-etheno NAD^+ (ε-NAD). Recombinant mouse CD38 (0.4 nM) was preincubated with test compounds in 384-well black microplates for 30 min at 25° C. in PBS (—Ca^2+/Mg^2+) containing 0.005% BSA (pH 7.4). CD38 hydrolase activity was initiated by addition of 12 μM ε-NAD, which yields the fluorescent product 1,N^6-etheno ADP-ribose. Formation of fluorescent product was followed using ClarioStar Plus (BMG) microplate reader by reading fluorescence (excitation λ=300 nm; emission λ=410 nm) at two time points, one immediately after substrate addition (t=0) and one at 6 min (t=6).
(§8) Data was analysed by subtracting the values detected at t=0 from t=6 to correct for variation in baseline fluorescence, and fluorescence values were converted to percent inhibition using the average of high signal (CD38 and ε-NAD) and low signal (CD38 and ε-NAD in the presence of a tool CD38 inhibitor) control wells. IC50 values were determined from a 10-point, half log concentration response curve with a four-parameter logistic equation.

[5] = molecular target: Recombinant human CD38 (Homo sapiens (Human), UniProt P28907); experiment: Human CD38 hydrolase assay (fluorescence, ε-NAD substrate); format: biochemical; details: recombinant human CD38 0.8 nM, 4 μM ε-NAD, 30 min preincubation at 25° C., pH 7.4
Experimental: as §7, with “inhibit human” for “inhibit mouse”, “Recombinant human” for “Recombinant mouse”, “CD38 (0.8” for “CD38 (0.4”, “of 4” for “of 12”, “at 10” for “at 6”, “min (t=10).” for “min (t=6).”
as §8, with “t=10” for “t=6”, “fluorescence. Fluorescence” for “fluorescence, and fluorescence”

[6] = brain, read-out: total brain conc.
[7] = brain, total corrected for unbound fraction in brain, read-out: free brain conc.
[8] = plasma, read-out: total plasma conc.
[9] = plasma, total corrected for unbound fraction in plasma, read-out: free plasma conc.

Recombinant human CD38, sequence (P28907 whole entry): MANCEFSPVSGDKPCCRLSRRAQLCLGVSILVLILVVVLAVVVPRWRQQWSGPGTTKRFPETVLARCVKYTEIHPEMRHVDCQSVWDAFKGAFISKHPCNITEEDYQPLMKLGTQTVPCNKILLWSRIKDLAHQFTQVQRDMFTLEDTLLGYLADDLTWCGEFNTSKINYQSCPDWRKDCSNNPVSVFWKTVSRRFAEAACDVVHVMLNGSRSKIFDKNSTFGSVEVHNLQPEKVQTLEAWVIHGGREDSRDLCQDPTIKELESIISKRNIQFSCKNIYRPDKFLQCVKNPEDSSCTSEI
Recombinant mouse CD38, sequence (P56528 whole entry): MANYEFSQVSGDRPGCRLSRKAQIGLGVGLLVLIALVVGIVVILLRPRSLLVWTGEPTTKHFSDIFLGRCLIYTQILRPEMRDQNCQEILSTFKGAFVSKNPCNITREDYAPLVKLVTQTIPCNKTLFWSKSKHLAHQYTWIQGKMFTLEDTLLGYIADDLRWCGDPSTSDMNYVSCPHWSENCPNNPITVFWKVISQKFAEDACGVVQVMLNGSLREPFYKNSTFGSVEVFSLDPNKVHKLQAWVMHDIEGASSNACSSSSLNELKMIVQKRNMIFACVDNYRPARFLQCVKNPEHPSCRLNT

Row | SMILES | Mouse plasma (% unbound) [1] [% unbound] | concentration at 2 h [2, 6] [nM] | concentration at 2 h [2, 7] [nM] | Kpu,u (unbound brain/plasma partition coefficient) at 2 h [2] | concentration at 2 h [2, 8] [nM] | concentration at 2 h [2, 9] [nM] | Mouse brain (% unbound) [3] [% unbound] | IC50 [4] [nM] | IC50 [5] [nM]
1 | Cc1cc(C(=O)N[C@H]2CC[C@](C)(O)CC2)nc(-n2ccnc2)n1 [Example 18, N-((1r,4r)-4-hydroxy-4-methylcyclohexyl)-2-(1H-imidazol-1-yl)-6-methyl-pyrimidine-4-carboxamide, reference compound] | 25.3 | 430 | 122 | 0.03 | 13000 | 3290 | 28.4 |  | 
2 | Cc1cc(C(=O)N[C@H]2CC[C@H](OC(F)F)CC2)nc(-n2ccnc2)n1 [Example 17, N-((1r,4r)-4-(difluoromethoxy)cyclohexyl)-2-(1H-imidazol-1-yl)-6-methyl-pyrimidine-4-carboxamide, reference compound] | 6.9 | 77 | 10 | 0.08 | 1680 | 115 | 13.6 |  | 
3 | Cc1cc(C(=O)N[C@H]2CC[C@H](N[C@@H](C)C(F)(F)F)CC2)nc(-n2ccnc2)n1 [Example 22, 2-(1H-imidazol-1-yl)-6-methyl-N-((1S,4r)-4-(((S)-1,1,1-trifluoropropan-2-yl)amino)cyclohexyl)pyrimidine-4-carboxamide] |  |  |  |  |  |  |  | ≤ 40 | ≤ 40
